“And” between values parts separate entries of the source, which are not always exact repeats. Identical values can stand only once. Inconclusive results and toxic doses are left out. Cut-off read from the data, not from the text of the source: active = T/C of 150% or more; inactive = T/C below 125%. Square brackets hold non-standard residues; d marks the D form. Peptide text beside a SMILES is read from it. * marks the point of attachment. ξ: configuration not given here. Cbz = O=C(OCc1ccccc1)*; ξI = CCC(C)C(N)C(=O)O
Test system: L1210 leukemia ip in BDF1 mice, survival T/C
Assay: NCI In Vivo Anticancer Drug Screen. Data for tumor model L1210 Leukemia (intraperitoneal) in B6D2F1 (BDF1) mice
Conditions: endpoint: mean survival time, higher = longer survival
Summary of the method: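 Each compound was tested against a transplantable tumor grown in mice. The endpoint was survival, with treated animals benchmarked against vehicle controls as a simple ratio.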

[1] = dose: 25.0 mg/kg/injection, schedule: Q04DX003 (ip), vehicle: saline with Tween-80
[2] = dose: 50.0 mg/kg/injection, schedule: Q04DX003 (ip), vehicle: saline with Tween-80
[3] = dose: 100.0 mg/kg/injection, schedule: Q04DX003 (ip), vehicle: saline with Tween-80
[4] = dose: 200.0 mg/kg/injection, schedule: Q04DX003 (ip), vehicle: saline with Tween-80
[5] = dose: 100.0 mg/kg/injection, schedule: Q01DX009 (ip), vehicle: saline with Tween-80
[6] = dose: 200.0 mg/kg/injection, schedule: Q01DX009 (ip), vehicle: saline with Tween-80
[7] = dose: 100.0 mg/kg/injection, schedule: Q01DX009 (ip), vehicle: saline
[8] = dose: 200.0 mg/kg/injection, schedule: Q01DX009 (ip), vehicle: saline
[9] = dose: 100.0 mg/kg/injection, schedule: Q04DX003 (ip), vehicle: Klucel (hydroxypropylcellulose) (HPC)
[10] = dose: 200.0 mg/kg/injection, schedule: Q04DX003 (ip), vehicle: Klucel (hydroxypropylcellulose) (HPC)
[11] = dose: 400.0 mg/kg/injection, schedule: Q04DX003 (ip), vehicle: Klucel (hydroxypropylcellulose) (HPC)

Measured: T/C

c1cc[c]([Sn]([c]2ccccc2)([c]2ccccc2)[n]2ccnc2)cc1
inactive: dose: 5.0 mg/kg/injection, schedule: Q01DX001 (ip), vehicle: other 95 % of control | dose: 10.0 mg/kg/injection, schedule: Q01DX001 (ip), vehicle: other 108 % of control

COc1cc(NC(C)CCCN)c2ncccc2c1 (stereo not given)
inactive: [1] 104 % of control | [2] 95 % of control | [3] 95 % of control and 105 % of control

CC12CCC3c4ccc(Oc5ccccc5[N+](=O)[O-])cc4CCC3C1CCC2=O (stereo not given)
inactive: dose: 100.0 mg/kg/injection, schedule: Q01DX001 (sc), vehicle: steriod suspending solution 100 % of control | dose: 200.0 mg/kg/injection, schedule: Q01DX001 (sc), vehicle: steriod suspending solution 103 % of control | dose: 400.0 mg/kg/injection, schedule: Q01DX001 (sc), vehicle: steriod suspending solution 103 % of control

COc1ccc(/C=C2\NC(=O)NC2=O)cc1
inactive: dose: 100.0 mg/kg/injection, schedule: Q01DX001 (ip), vehicle: saline 98 % of control | dose: 200.0 mg/kg/injection, schedule: Q01DX001 (ip), vehicle: saline 93 % of control | dose: 400.0 mg/kg/injection, schedule: Q01DX001 (ip), vehicle: saline 95 % of control

CCCCCC(=O)NCC(=O)O
inactive: [3] 94 % of control | [4] 97 % of control | dose: 400.0 mg/kg/injection, schedule: Q04DX003 (ip), vehicle: saline with Tween-80 94 % of control

CCOC(=O)NC1CCC1NC(=O)OCC (stereo not given)
inactive: [5] 95 % of control | [6] 98 % of control | dose: 400.0 mg/kg/injection, schedule: Q01DX009 (ip), vehicle: saline with Tween-80 91 % of control

Cc1ccc(NC(=O)OC/C=C/c2ccccc2)cc1NC(=O)OC/C=C/c1ccccc1
inactive: dose: 200.0 mg/kg/injection, schedule: Q01DX009 (ip), vehicle: Klucel (hydroxypropylcellulose) (HPC) 93 % of control

Nc1nc(=S)[nH]c(N)c1N
inactive: dose: 125.0 mg/kg/injection, schedule: Q01DX Z (ip), vehicle: methylcellulose (MC) 93 % of control

Cc1c(-c2ccccc2)cc(O)cc1-c1ccccc1
inactive: dose: 25.0 mg/kg/injection, schedule: Q01DX009 (ip), vehicle: saline 98 % of control | dose: 50.0 mg/kg/injection, schedule: Q01DX009 (ip), vehicle: saline 98 % of control | [7] 105 % of control | [8] 100 % of control

C(CCCCc1nn[nH]n1)CCCc1nn[nH]n1
inactive: [9] 94 % of control | [10] 103 % of control | [11] 91 % of control

COc1cccc(OC)c1OS(=O)(=O)c1ccc(COc2ccc([N+](=O)[O-])cc2Cl)cc1
inactive: [9] 98 % of control | [10] 90 % of control | [11] 90 % of control

N/C(=N\N=C\c1ccccn1)c1ccccn1
inactive: dose: 10.0 mg/kg/injection, schedule: Q01DX001 (ip), vehicle: water 93 % of control

FC1(F)SC2CCCC2C1(F)F (stereo not given)
inactive: dose: 3.13 mg/kg/injection, schedule: Q01DX009 (ip), vehicle: saline with Tween-80 95 % of control | dose: 6.25 mg/kg/injection, schedule: Q01DX009 (ip), vehicle: saline with Tween-80 106 % of control | dose: 12.5 mg/kg/injection, schedule: Q01DX009 (ip), vehicle: saline with Tween-80 95 % of control and 101 % of control | dose: 12.5 mg/kg/injection, schedule: Q04DX003 (ip), vehicle: saline with Tween-80 101 % of control | [1] 104 % of control | [2] 95 % of control

COc1ccc(/C=C2\CCC3C(=O)CCCC3(C)C2=O)cc1 (stereo not given)
inactive: [7] 95 % of control | dose: 100.0 mg/kg/injection, schedule: Q04DX003 (ip), vehicle: saline 100 % of control | [8] 104 % of control | dose: 200.0 mg/kg/injection, schedule: Q04DX003 (ip), vehicle: saline 117 % of control | dose: 400.0 mg/kg/injection, schedule: Q01DX009 (ip), vehicle: saline 101 % of control | dose: 400.0 mg/kg/injection, schedule: Q04DX003 (ip), vehicle: saline 104 % of control

[N-]=[N+]=C1C(=O)NC(=O)NC1C(=O)O (stereo not given)
inactive: dose: 75.0 mg/kg/injection, schedule: Q01DX009 (ip), vehicle: Klucel (hydroxypropylcellulose) (HPC) 103 % of control | dose: 100.0 mg/kg/injection, schedule: Q01DX001 (ip), vehicle: Klucel (hydroxypropylcellulose) (HPC) 96 % of control | dose: 150.0 mg/kg/injection, schedule: Q01DX009 (ip), vehicle: Klucel (hydroxypropylcellulose) (HPC) 119 % of control | dose: 200.0 mg/kg/injection, schedule: Q01DX001 (ip), vehicle: Klucel (hydroxypropylcellulose) (HPC) 100 % of control | dose: 300.0 mg/kg/injection, schedule: Q01DX009 (ip), vehicle: Klucel (hydroxypropylcellulose) (HPC) 107 % of control | dose: 400.0 mg/kg/injection, schedule: Q01DX001 (ip), vehicle: Klucel (hydroxypropylcellulose) (HPC) 86 % of control

O=NN(C(=O)NC1CCCCC1)C1CCCCC1
inactive: dose: 100.0 mg/kg/injection, schedule: Q01DX001 (ip), vehicle: carboxymethylcellulose (CMC) 106 % of control | dose: 200.0 mg/kg/injection, schedule: Q01DX001 (ip), vehicle: carboxymethylcellulose (CMC) 106 % of control | dose: 300.0 mg/kg/injection, schedule: Q01DX001 (ip), vehicle: carboxymethylcellulose (CMC) 106 % of control | dose: 400.0 mg/kg/injection, schedule: Q01DX001 (ip), vehicle: carboxymethylcellulose (CMC) 109 % of control | dose: 500.0 mg/kg/injection, schedule: Q01DX001 (ip), vehicle: carboxymethylcellulose (CMC) 112 % of control

C=CCSC(C)CC (stereo not given)
inactive: dose: 50.0 mg/kg/injection, schedule: Q01DX009 (ip), vehicle: saline with Tween-80 95 % of control | [5] 101 % of control | [3] 96 % of control | [6] 92 % of control | [4] 96 % of control

CC(C)(C)OC(=O)c1cc([N+](=O)[O-])cc([N+](=O)[O-])c1
inactive: dose: 100.0 mg/kg/injection, schedule: Q04DX002 (ip), vehicle: Klucel (hydroxypropylcellulose) (HPC) 104 % of control | dose: 200.0 mg/kg/injection, schedule: Q04DX002 (ip), vehicle: Klucel (hydroxypropylcellulose) (HPC) 104 % of control | dose: 400.0 mg/kg/injection, schedule: Q04DX002 (ip), vehicle: Klucel (hydroxypropylcellulose) (HPC) 107 % of control

COC1=C(F)C(=O)C(OC)=C(F)C1=O
inactive: dose: 1.2 mg/kg/injection, schedule: Q01DX001 (ip), vehicle: alcohol 101 % of control | dose: 2.5 mg/kg/injection, schedule: Q01DX001 (ip), vehicle: alcohol 97 % of control | dose: 5.0 mg/kg/injection, schedule: Q01DX001 (ip), vehicle: alcohol 103 % of control

CCCCNC(N)=O
inactive: dose: 100.0 mg/kg/injection, schedule: Q04DX002 (ip), vehicle: saline 101 % of control | dose: 200.0 mg/kg/injection, schedule: Q04DX002 (ip), vehicle: saline 96 % of control | dose: 400.0 mg/kg/injection, schedule: Q04DX002 (ip), vehicle: saline 92 % of control

CCC(C)C(NC(=O)CNC(=O)CNC(=O)OCc1ccccc1)C(=O)OC (stereo not drawn) (Cbz-Gly-Gly-[ξI]-OMe)
inactive: [9] 98 % of control | [10] 96 % of control | [11] 98 % of control

Reference: PubChem BioAssay AID248 (DTP/NCI, 2004)
